Reference: patent publication US8148398B2, “Intermediate duration neuromuscular blocking agents and antagonists thereof” (Cornell Research Foundation, Inc., priority 2006, dated 2012)

Key:
Type in all cases: in vivo
[1] = tested on: Rhesus monkeys; assay: Potency and duration of neuromuscular blockade, twitch response in anesthetized rhesus monkeys; conditions: for spontaneous recovery from neuromuscular blockade / duration of the neuromuscular blockade (FIG. 7): no antagonist; for effective dosage for 50% neuromuscular blockade (dose-response curve) / effective dosage for 95% neuromuscular blockade (dose-response curve): dose-response curve FIG. 3 / FIG. 10; for Potency (ED95 mg/kg) / Duration at 4X ED95 / Duration: rhesus monkeys; for Potency (ED95 mg/kg): intravenous, dose achieving 95% neuromuscular blockade; for Duration at 4X ED95: 4xED95 dosage; for Duration: from injection to 95% twitch recovery
Protocol: (§1) Rhesus monkeys were anesthetized with ketamine (7.5 mg/Kg) given intramuscularly or intravenously. Anesthesia was maintained with a mixture of isoflurane (1.5%), nitrous oxide (60%) and oxygen (40%). The common peroneal nerve was stimulated supramaximally with square wave pulses of 0.2 m sec duration at a rate of 0.15 Hz. Twitch contractions were recorded via the tendon of the extensor digitorum muscle.
(§2) In all animals, the trachea was intubated and ventilation was controlled at 12-15 ml/kg, 18-24 breaths per minute. A peripheral vein and artery were cannulated for drug administration and for recording of arterial pressure, respectively. In preliminary studies a neuromuscular blocking agent having one of the following structures was administered intravenously.

[2] = tested on: Rhesus monkeys; assay: Reversal of neuromuscular blockade by cysteine plus glutathione in rhesus monkeys (Example 3); conditions: for time for reversal of the neuromuscular blockade (FIG. 5, as stated in Example 3): combination of cysteine and glutathione
Protocol: as §1, §2
In studies designed to examine the reversal of the neuromuscular blockade caused by these agents, cysteine and/or glutathione was administered to test animals at selected dosages.
Rhesus monkeys were anesthetized and treated with a neuromuscular blocking agent as described in Example 1.

[3] = tested on: Rhesus monkeys; assay: Cardiovascular effects (mean arterial pressure, heart rate) of blocking agents in rhesus monkeys; conditions: for change in heart rate / change in mean arterial pressure: even high dosages, FIG. 8 / FIG. 9; for physiological distress to the circulation in vivo: rhesus monkeys
Protocol: as §1, §2
Rhesus monkeys were anesthetized and treated with a neuromuscular blocking agent as described in Example 1. FIGS. 8 and 9 provide mean values for the cardiovascular effects of administration of the AV002 and AV001 neuromuscular blocking agents, respectively as a function of dosage.

[4] = tested on: adult male rhesus monkeys; assay: Reversal of AV002 0.15 mg/kg block by cysteine/glutathione or neostigmine/atropine (Example 5); conditions: AV002 0.15 mg/kg (3XED95), spontaneous recovery
Protocol: Anesthesia was induced in adult male rhesus monkeys using 7.5 mg/kg ketamine. Tracheae were intubated using topical anesthetic. Anesthesia was maintained with isoflurane 1-2% and N2O/O2 (60%/40%). ECG, temperature, O2 saturation, and blood pressure were monitored and maintained within normal limits. Mechanomyogram (MMG) recordings were made of twitch responses from the extensor digitorum at 0.15 Hz. A control dose of AV002 (0.15 mg/kg; about 3 times the ED95) was given and animals were allowed to recover spontaneously. Another dose of 0.15 mg/kg of AV002 was given approximately 30 minutes after return of train of four (TOF) to greater than 100%. Reversal of the second dose of AV002 was attempted in four separate groups of animals with either:
1) cysteine 30 mg/kg and glutathione 30 mg/kg at 1 minute after injection of AV002,
2) cysteine 30 mg/kg and glutathione 30 mg/kg at the first sign of recovery of twitch,
3) neostigmine 0.05 mg/kg and atropine 0.03 mg/kg at 1 minute after injection of AV002, or
4) neostigmine 0.05 mg/kg and atropine 0.03 mg/kg at the first sign of recovery of twitch.
Comparative recovery intervals and total duration were analyzed using the student t-test.

[5] = tested on: neuromuscular blockade; assay: Reversibility of neuromuscular blockade by cysteine-like antagonists (general statements); conditions: general statement, no method given
[6] = 0.1 mg/kg blocking agent, FIG. 1 / FIG. 4

Structure (SMILES)	spontaneous recovery from neuromuscular blockade [1, 6]	effective dosage for 50% neuromuscular blockade (dose-response curve) [1]	effective dosage for 95% neuromuscular blockade (dose-response curve) [1]	Potency (ED95 mg/kg) [1]	Duration at 4X ED95 [1]	Duration [1]	change in heart rate [3]	change in mean arterial pressure [3]	physiological distress to the circulation in vivo [3]	reversal of the blockade by cysteine-like molecules (cysteine, glutathione) [5]	also measured
COc1cc2c(cc1OC)[C@@H](Cc1cc(OC)c(OC)c(OC)c1)[N@+](C)(CCCOC(=O)/C=C/C(=O)OCCC[N@+]1(C)CCc3cc(OC)c(OC)cc3[C@H]1Cc1cc(OC)c(OC)c(OC)c1)CC2 [AV001]	about 2800 seconds	0.027 mg/kg	0.040 mg/kg	0.04 mg/kg	50 to 60 min	30 to 40 min	little or no change	little or no change	no signs of causing physiological distress to the circulation	–	time to reversal of neuromuscular blockade counted from blocking agent administration ([2]; 0.1 mg/kg, 20 mg/kg cysteine + 10 mg/kg glutathione after two minutes): about 475 seconds; recovery from neuromuscular blockade with cysteine plus glutathione, overdose ([2]; 3.0 mg/kg blocking agent, seconds value restated in minutes): about 8.5 min.
COc1ccc(C[C@@H]2c3cc(OC)c(OC)cc3CC[N@@+]2(C)CCCOC(=O)/C=C/C(=O)OCCC[N@+]2(C)CCc3cc(OC)c(OC)cc3[C@H]2Cc2ccc(OC)c(OC)c2)cc1OC [AV002]	about 1600 seconds	0.031 mg/kg	0.045 mg/kg	0.04 mg/kg	30 to 35 min	20 to 25 min	little or no change	little or no change	no signs of causing physiological distress to the circulation	–	duration of the neuromuscular blockade (FIG. 7) ([1]; 0.1 mg/kg): about 1766 seconds; spontaneous recovery from neuromuscular blockade ([1]; 0.2 mg/kg blocking agent, FIG. 6): about 1730 seconds; spontaneous recovery from neuromuscular blockade ([1]; 0.2 mg/kg blocking agent, seconds value restated in minutes): about 28.8 min.; duration of the neuromuscular blockade (FIG. 7) ([1]; 0.2 mg/kg): about 2150 seconds; potency of trans isomer (AV002) compared with cis isomer (AV003) ([1]; comparison of ED95 values): five times more potent; time for reversal of the neuromuscular blockade (FIG. 5, as stated in Example 3) ([2]; 0.1 mg/kg): about 320 seconds; recovery from neuromuscular blockade with cysteine plus glutathione ([2]; 0.2 mg/kg blocking agent, antagonists at 2 minutes, seconds value restated in minutes): about 7.5 min.; time for reversal of the neuromuscular blockade (FIG. 5, as stated in Example 3) ([2]; 0.2 mg/kg): about 670 seconds; Recovery Interval (5-95%) (minutes ± SE) [4]: 13.78 ± 1.27 min; Total Duration (inj − 95%) (minutes ± SE) [4]: 30.45 ± 2.24 min
COc1ccc(C[C@H]2c3cc(OC)c(OC)cc3CC[N@@+]2(C)CCCOC(=O)/C=C/C(=O)OCCC[N@+]2(C)CCc3cc(OC)c(OC)cc3[C@@H]2Cc2ccc(OC)c(OC)c2)cc1OC [AV003]	–	–	–	0.20 mg/kg	45 to 60 min	25 to 40 min	–	–	–	–	–
COc1ccc(C[C@@H]2c3cc(OC)c(OC)cc3CC[N@+]2(C)CCC(=O)OCCCCCOC(=O)CC[N@@+]2(C)CCc3cc(OC)c(OC)cc3[C@H]2Cc2ccc(OC)c(OC)c2)cc1OC [cisatracurium]	–	–	–	–	–	–	–	–	–	no reversal effect whatsoever	–
COc1cc(CC2c3c(cc(OC)c(OC)c3OC)CC[N+]2(C)CCCOC(=O)CCC(=O)OCCC[N+]2(C)CCc3cc(OC)c(OC)c(OC)c3C2Cc2cc(OC)c(OC)c(OC)c2)cc(OC)c1OC (stereo not drawn) [doxacurium]	–	–	–	–	–	–	–	–	–	no reversal effect whatsoever	–
COc1cc2c(cc1OC)[C@@H](Cc1cc(OC)c(OC)c(OC)c1)[N+](C)(CCCOC(=O)CC/C=C/CCC(=O)OCCC[N+]1(C)CCc3cc(OC)c(OC)cc3[C@H]1Cc1cc(OC)c(OC)c(OC)c1)CC2 (stereo partly drawn) [mivacurium]	–	–	–	–	–	–	–	–	–	no reversal effect whatsoever	–
